From patent US20110223149A1, “PEPTIDOMIMETIC MACROCYCLES” (AILERON THERAPEUTICS, INC., priority 2009, published 2011)
Where a SMILES comes first, the peptide text is derived from it. Bridges are numbered along the chain shown (N, C = ends). [ ]: non-standard residue; d: D form. S5 = C=CCCC[C@](C)(N)C(=O)O

What was measured:
[1] = target: Cathepsin D (Homo sapiens, UniProt P07339); format: in vitro ADME; details: pH 4.4
Description: For identification of Cathepsin B, D, and L metabolism, parent cross-linked peptide and positive control linear peptide (4 mM each in DMSO) was separately aliquoted (5 μL) to 1 mL volumes of 67 mM ammonium acetate solutions buffered either to pH 5.4 (cat B, L) and add 10 mM DTT, or to pH 4.4 (cat D) and add 0.117M KCl. Single enzyme working solution (10 μg/mL) was then added (40 μL) to each peptide solution (20 μM) to yield initial weight ratio (%) of 1:20 for each enzyme and peptide pair. Each mixture was placed in a 38-40° C. oven for incubation times of 30 and 60 min. At each time point, the reaction was stopped by addition of 500 μL of 48:48:2 v/v(%) hexafluoro-2-propanol/acetonitrile/TFA. A biphasic mixture formed after mixing and the bottom layer liquid was diluted (1:10) into acetonitrile: water and subsequently injected in duplicate for gradient LC/Ion Mobility TOF-MS analyses.
Ion mobility-MS and MS-MS analysis and peptide sequencing were performed on a Waters (Milford, Mass.) Synapt high-resolution ion-mobility-time-of flight mass spectrometer. Samples were prepared by dilution of the unpurified cross-linked peptide proteolysis product samples 10-fold into 1:1 acetonitrile-water containing 0.1% formic acid. LC-MS analyses were performed by reverse-phase gradient elution with 0.1% formic acid and 0.1% formic acid in acetonitrile as eluants at 500 μL/min. […]

[2] = target: Bcl-xL (Homo sapiens, UniProt Q07817); experiment: Protein-ligand binding experiment by SEC-LC-MS; details: 1 μM SP-4 and 5 μM Bcl-xL, 60 min at room temperature
Description: Protein-ligand binding experiments for Bcl-xL. Simple protein-ligand binding experiments were conducted using the following representative procedure outlined for a simple system-wide control experiment using 1 μM SP-4 and 5 μM Bcl-xL. A 1 μL, DMSO aliquot of a 40 μM stock solution of SP-4 is dissolved in 19 μL of PBS (Phosphate-buffered saline: 50 mM, pH 7.5 Phosphate buffer containing 150 mM NaCl). The resulting solution is mixed by repeated pipetting and clarified by centrifugation at 10 000 g for 10 min. To a 4 μL, aliquot of the resulting supernatant is added 4 μL, of 10 μM BCL-xL in PBS. Each 8.0 μL experimental sample thus contains 40 pmol (1.5 μg) of protein at 5.0 μM concentration in PBS plus 1 μM SP-4 and 2.5% DMSO. Duplicate samples thus prepared for each concentration point are incubated for 60 min at room temperature, and then chilled to 4° C. prior to size-exclusion chromatography-LC-MS analysis of 5.0 μL injections. Samples containing a target protein, protein-ligand complexes, and unbound compounds are injected onto an SEC column, where the complexes are separated from non-binding component by a rapid SEC step. The SEC column eluate is monitored using UV detectors to confirm that the early-eluting protein fraction, which elutes in the void volume of the SEC column, is well resolved from unbound components that are retained on the column. […]

Cathepsin D, sequence (P07339 65-412, species assumed): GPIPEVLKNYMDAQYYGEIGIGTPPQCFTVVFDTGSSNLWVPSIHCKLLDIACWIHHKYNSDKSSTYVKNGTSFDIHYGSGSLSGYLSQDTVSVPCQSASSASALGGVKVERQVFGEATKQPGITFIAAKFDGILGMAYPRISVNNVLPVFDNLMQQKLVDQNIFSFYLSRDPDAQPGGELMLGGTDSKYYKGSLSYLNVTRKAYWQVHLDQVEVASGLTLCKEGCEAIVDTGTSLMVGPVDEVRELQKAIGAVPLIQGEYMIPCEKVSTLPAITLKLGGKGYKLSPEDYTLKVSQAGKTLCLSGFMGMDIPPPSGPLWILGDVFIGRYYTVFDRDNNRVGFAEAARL
Bcl-xL, sequence (Q07817 whole entry, species assumed): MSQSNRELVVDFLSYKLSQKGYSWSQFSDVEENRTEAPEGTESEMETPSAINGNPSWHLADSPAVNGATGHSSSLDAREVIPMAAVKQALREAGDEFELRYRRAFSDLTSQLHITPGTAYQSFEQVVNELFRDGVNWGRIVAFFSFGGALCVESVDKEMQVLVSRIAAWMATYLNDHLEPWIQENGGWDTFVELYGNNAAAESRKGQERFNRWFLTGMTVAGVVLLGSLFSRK

cleavage site by cathepsin-D (proteolysis products) [1] | detection of protein-ligand complex with Bcl-xL [2] | Compound
at F—Y residues | – | CC[C@H](C)[C@H](NC(=O)[C@H](Cc1c[nH]c2ccccc12)NC(=O)[C@H](CCCNC(=N)N)NC(C)=O)C(=O)N[C@@H](C)C(=O)N[C@@H](CCC(N)=O)C(=O)N[C@@H](C)C(=O)N[C@@H](CC(C)C)C(=O)N[C@@H](CCCNC(=N)N)C(=O)N[C@@]1(C)CCC/C=C\CCC[C@@](C)(C(=O)N[C@@H](Cc2ccccc2)C(=O)N[C@@H](CC(N)=O)C(=O)N[C@@H](C)C(=O)N[C@@H](Cc2ccccc2)C(=O)N[C@@H](Cc2ccc(O)cc2)C(=O)N[C@@H](C)C(=O)N[C@@H](CCCNC(=N)N)C(=O)N[C@@H](CCCNC(=N)N)C(N)=O)NC(=O)[C@H](CC(=O)O)NC(=O)CNC(=O)[C@H]([C@@H](C)CC)NC1=O [SP-1, Ac-RWIAQALR$IGD$FNAFYARR-NH2] (Ac-RWIAQALR[S5]IGD[S5]FNAFYARR-NH2; staple (Z) 9-13)
– | detection of the protein-ligand complex | Ac-IWIAQALR$IGD$FNAYYARR-NH2 [SP-4]
